# According to paper PMC11320734 (ACS Pharmacology & Translational Science, 2024):
# Where two headings read alike, the source gives them in different places.
# Experiments:
# [1] = molecular target: T1, rat CB2R (Rattus norvegicus, UniProt Q9QZN9); test: cAMP assay in CHO cells; type: cell-based; conditions: mean ± SD
# T1 construct: expressed in transfected cells; host or cells: CHO cells
# [2] = system: UUO-induced kidney fibrosis; test: Unilateral ureteral obstruction (UUO) model of kidney fibrosis; type: in vivo, Sprague–Dawley rats
# Experimental: In the ischemia/reperfusion (I/R) model of acute kidney injury (AKI),[47],[48] the compounds were administered orally by gavage to C57BL/6 mice 30 min before ischemia obtained by clamping both renal arteries and veins for 25 min, followed by 24 h of reperfusion. Mice were anesthetized using xylazine (10 mg kg^–1)/ketamine (100 mg kg^–1) injected intraperitoneally. Sham treated mice were treated identically except for the temporary closure of the renal vessels. After 24 h, under reanesthesia, plasma was taken for biomarker analysis. Thereafter, mice still in deep anesthesia were sacrificed by cervical dislocation. Creatinine, BUN (blood urea nitrogen), NGAL (neutrophil gelatinase-associated lipocalin), osteopontin, and KIM1 (kidney injury molecule-1) levels were determined using the following commercially available standard assays: creatinine: Roche Diagnostics 03263991, BUN: Roche Diagnostics 04460715, NGAL: BioPorto, Kit046 + Kit042, osteopontin: R&D Systems, MOST00, KIM-1: Abnova, KA1064. To assess fibrotic effects, we used the unilateral ureteral obstruction (UOO) model in Sprague–Dawley rats.[49] For the UOO model, rats were sacrificed after 5, 8, and 11 days and the percentage of PicroSirius Red positive areas (indicator of collagen III–I deposition) were measured in 4 μm histological cross sections of the kidney after 2% paraformaldehyde perfusion fixation and paraffin embedding. The extend of kidney fibrosis was quantified based on PicroSirius Red staining of 10 renal sections about 1 mm apart from each kidney. The collagen–III-I-positive pixel counts were determined in the cortical aspect of each kidney section from 10 optical fields using a 40× objective. As the total area analyzed was identical for all kidneys under investigation, the absolute number of pixels was used as the relevant readout. Vehicle treated animals received saline gavage only. The details of PicroSirius Red staining were previously described.[22]
# [3] = system: P-gp; test: Brain penetration study with/without P-gp inhibitor tariquidar; type: in vivo, male C57/BL6 mice; conditions: male, C57/BL6, mouse, with tariquidar 5 mg kg^–1 i.v. bolus, 30 min prior to RNB-61
# Experimental: (§1) To characterize the pharmacokinetic behavior of RNB-61, studies in rodents were conducted at the in vivo facility of F. Hoffmann-La Roche Ltd. (Basel, Switzerland). The plasma-concentration time profile was studied in rodents after single-dose RNB-61 administration by oral gavage (p.o. microsuspension excipients 7.5% gelatin/0.62% NaCl) and intravenous bolus injection (i.v. solution, excipients NMP:NaCl (30:70)). Three groups of male Wistar rats (n = 2 per group) were administered RNB-61 either at 1 mg kg^–1 i.v., 3 mg kg^–1 p.o., or 26 mg kg^–1 p.o. Plasma samples were drawn at 0.083, 0.25, 0.5, 1, 2, 4, 8, and 24 postdose in the i.v. group and at 0.25, 0.5, 0.75, 1.5, 3, 5, 8, and 24 h postdose in the p.o. groups. The samples were analyzed for RNB-61 concentration by LC/MS-MS. For the LC/MS-MS analysis, and the samples were prepared by adding 100 uL to 400 uL ACN with ISTD (100 ng/mL Bosantan in ACN/MeOH 1/1), stirring, and centrifuging (4000 rpm, 65’). 100 uL of the supernatant were pipetted and diluted with 400 μL H2O at pH 3. The analytes were separated on a Restek C18 column (5 μm, 1.0 × 3 mm). The mobile phase consisted of water containing 0.1% HCOOH as solvent A and ACN containing 0.1% HCOOH as solvent B. The gradient curve starting with 5% B was changed to 90% B between 0.4 and 0.6 min and further increased to 95% B between 0.6 and 1.2 min. This was maintained until 1.4 min and then reduced and kept at 5% B between 1.45 and 2.0 min. The mass spectrometer was operated in the positive mode. All LC-MS/MS was done using the Agilent RapidFire Analyzer software (version 4.3). The pharmacokinetic parameters were estimated by noncompartmental analysis in the Certara WinNonlin software (version 5.3). A similar study design was run in mice with three groups receiving 2 mg kg^–1 i.v., 4 mg kg^–1 p.o., or 26 mg kg^–1 p.o., and plasma sampling occurring in a composite profile (n = 2 for each time point) up to 7 or 24 h postdose. Male C57/BL6 mice (n = 5 per group) were used to study the influence of P-gp efflux on brain penetration. Two groups of mice were administered RNB-61 by i.v. bolus injection at 1 mg kg^–1 (2 groups). In order to block P-gp activity, an i.v. bolus of 5 mg kg^–1 tariquidar[46] was injected into one group 30 min prior to RNB-61. Plasma was collected at 0.083, 0.25, 0.5, 2, 4, and 7 h postdose in a composite profile. Brain, CSF, and vitreous body were collected at terminal time points 0.5, 2, 4, and 7 h postdose.
# [4] = as above; type: in vivo, male C57/BL6 mice
# Experimental: as §1
# [5] = molecular target: COX-2 (Homo sapiens, UniProt P35354); test: Endocannabinoid target profiling: COX-2; type: biochemical
# COX-2, sequence (P35354 18-604): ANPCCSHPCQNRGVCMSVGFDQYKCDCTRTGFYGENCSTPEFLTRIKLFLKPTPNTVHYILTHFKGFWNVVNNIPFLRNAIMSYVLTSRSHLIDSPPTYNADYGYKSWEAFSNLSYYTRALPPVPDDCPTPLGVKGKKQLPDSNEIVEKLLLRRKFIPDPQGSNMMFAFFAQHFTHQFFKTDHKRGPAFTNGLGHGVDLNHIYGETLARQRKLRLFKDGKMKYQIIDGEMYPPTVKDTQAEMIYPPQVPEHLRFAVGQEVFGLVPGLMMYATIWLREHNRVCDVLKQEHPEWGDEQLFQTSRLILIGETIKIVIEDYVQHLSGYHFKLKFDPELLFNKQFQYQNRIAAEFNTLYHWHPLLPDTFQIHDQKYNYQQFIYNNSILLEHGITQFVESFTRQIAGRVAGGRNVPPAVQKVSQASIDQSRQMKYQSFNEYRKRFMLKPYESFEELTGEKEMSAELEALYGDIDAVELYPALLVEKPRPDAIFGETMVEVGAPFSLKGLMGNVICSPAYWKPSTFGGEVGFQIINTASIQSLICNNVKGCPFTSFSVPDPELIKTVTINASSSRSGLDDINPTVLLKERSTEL
# [6] = Fraction unbound in plasma; type: in vitro ADME
# Text: Table 3 Physicochemical and ADMET Properties of RNB-61 | column: 481.556
# [7] = molecular target: FAAH (Homo sapiens, UniProt O00519); test: Endocannabinoid target profiling: FAAH; type: biochemical; conditions: screening concentration 10 μM
# FAAH, sequence (O00519 whole entry): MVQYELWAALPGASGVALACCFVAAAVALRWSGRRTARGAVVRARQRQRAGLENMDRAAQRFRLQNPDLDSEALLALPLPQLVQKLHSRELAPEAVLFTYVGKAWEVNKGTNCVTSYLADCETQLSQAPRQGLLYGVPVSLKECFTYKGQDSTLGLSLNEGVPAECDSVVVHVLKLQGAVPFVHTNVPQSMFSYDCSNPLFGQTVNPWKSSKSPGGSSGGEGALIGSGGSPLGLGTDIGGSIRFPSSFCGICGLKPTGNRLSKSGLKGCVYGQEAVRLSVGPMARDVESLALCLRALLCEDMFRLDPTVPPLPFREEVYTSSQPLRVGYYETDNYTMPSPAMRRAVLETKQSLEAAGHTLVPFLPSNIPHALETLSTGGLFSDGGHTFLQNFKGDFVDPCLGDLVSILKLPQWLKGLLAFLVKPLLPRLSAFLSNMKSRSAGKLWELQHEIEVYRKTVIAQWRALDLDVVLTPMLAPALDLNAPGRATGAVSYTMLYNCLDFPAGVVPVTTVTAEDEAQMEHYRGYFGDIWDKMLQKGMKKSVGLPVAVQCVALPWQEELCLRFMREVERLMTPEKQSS
# [8] = RNB-61 1 mg kg^–1 i.v. + tariquidar 5 mg kg^–1 i.v.
# [9] = RNB-61 1 mg kg^–1 i.v., no tariquidar
# T1 sequence (Q9QZN9 whole entry): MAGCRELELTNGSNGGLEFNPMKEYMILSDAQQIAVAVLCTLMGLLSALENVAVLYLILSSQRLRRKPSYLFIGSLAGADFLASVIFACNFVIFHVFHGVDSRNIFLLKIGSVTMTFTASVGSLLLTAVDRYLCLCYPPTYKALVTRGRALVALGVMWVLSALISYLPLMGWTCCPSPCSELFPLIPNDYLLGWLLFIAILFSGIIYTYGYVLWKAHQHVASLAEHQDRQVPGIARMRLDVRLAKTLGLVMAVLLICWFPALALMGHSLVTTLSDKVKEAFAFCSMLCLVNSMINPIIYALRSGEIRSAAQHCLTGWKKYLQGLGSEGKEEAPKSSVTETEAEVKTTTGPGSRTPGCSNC
compound,measurement,setting,value
Cn1c(C(C)(C)C)cc(=NC(=O)c2cc(C(F)(F)F)ccc2OCC(C)(C)O)n1CC1CCC1 [RNB-61],EC50,[1],0.13 ± 0.07 nM
same,inhibition of accumulation of collagen–III-I,"[2]; 3 mg kg^–1, day 8",61%
same,collagen–III-I positive area vs vehicle,"[2]; all three doses (printed 0.3, 3, and 3 mg kg^–1), day 8",significant reduction
same,half-life,"[3]; brain, iv, RNB-61 1 mg kg^–1 i.v. + tariquidar 5 mg kg^–1 i.v., read-out: brain T1/2 (converted)",8.42 h
same,Tmax,"[3]; brain, iv, RNB-61 1 mg kg^–1 i.v. + tariquidar 5 mg kg^–1 i.v., read-out: brain Tmax",0.53 h
same,Kp,"[3]; intravenous, ratio of AUClast in brain and plasma, + tariquidar 5 mg kg^–1, read-out: brain-plasma partition coefficient Kp",0.747
same,Cmax,"[3]; plasma, iv, RNB-61 1 mg kg^–1 i.v. + tariquidar 5 mg kg^–1 i.v.",737 ng/mL
same,AUC(0-inf),"[3]; plasma, iv, RNB-61 1 mg kg^–1 i.v. + tariquidar 5 mg kg^–1 i.v., read-out: plasma AUCinf",3560 ng·h/mL
same,AUC(0-t),"[3]; plasma, iv, RNB-61 1 mg kg^–1 i.v. + tariquidar 5 mg kg^–1 i.v., read-out: plasma AUClast",2510 ng·h/mL
same,clearance,"[3]; plasma, iv, RNB-61 1 mg kg^–1 i.v. + tariquidar 5 mg kg^–1 i.v., read-out: plasma CL (converted)",4.68 mL/min/kg
same,half-life,"[3]; plasma, iv, RNB-61 1 mg kg^–1 i.v. + tariquidar 5 mg kg^–1 i.v., read-out: plasma T1/2 (converted)",3.68 h
same,Tmax,"[3]; plasma, iv, RNB-61 1 mg kg^–1 i.v. + tariquidar 5 mg kg^–1 i.v., read-out: plasma Tmax",0.083 h
same,AUClast lower in the brain compared to plasma,"[4]; 1 mg kg^–1 i.v., no tariquidar",> 10 fold
same,peak brain concentration lower compared to plasma level,"[4]; 1 mg kg^–1 i.v., no tariquidar",> 20 fold
same,brain AUCinf,[4]; [8],4386 ng·h/mL
same,brain AUClast,[4]; [8],1877 ng·h/mL
same,brain Cmax,[4]; [8],342 ng/mL
same,brain AUCinf,[4]; [9],375 ng·h/mL
same,brain AUClast,[4]; [9],215 ng·h/mL
same,brain Cmax,[4]; [9],41.3 ng/mL
same,half-life,"[4]; male, C57/BL6, mouse, brain, iv, RNB-61 1 mg kg^–1 i.v., no tariquidar, read-out: brain T1/2 (converted)",5.98 h
same,Tmax,"[4]; male, C57/BL6, mouse, brain, iv, RNB-61 1 mg kg^–1 i.v., no tariquidar, read-out: brain Tmax",0.58 h
same,Kp,"[4]; male, C57/BL6, mouse, iv, ratio of AUClast in brain and plasma, 1 mg kg^–1 i.v., no tariquidar, read-out: brain-plasma partition coefficient Kp",0.088
same,Cmax,"[4]; male, C57/BL6, mouse, plasma, iv, RNB-61 1 mg kg^–1 i.v., no tariquidar",972 ng/mL
same,AUC(0-inf),"[4]; male, C57/BL6, mouse, plasma, iv, RNB-61 1 mg kg^–1 i.v., no tariquidar, read-out: plasma AUCinf",3320 ng·h/mL
same,AUC(0-t),"[4]; male, C57/BL6, mouse, plasma, iv, RNB-61 1 mg kg^–1 i.v., no tariquidar, read-out: plasma AUClast",2430 ng·h/mL
same,clearance,"[4]; male, C57/BL6, mouse, plasma, iv, RNB-61 1 mg kg^–1 i.v., no tariquidar, read-out: plasma CL (converted)",5.02 mL/min/kg
same,half-life,"[4]; male, C57/BL6, mouse, plasma, iv, RNB-61 1 mg kg^–1 i.v., no tariquidar, read-out: plasma T1/2 (converted)",4 h
same,Tmax,"[4]; male, C57/BL6, mouse, plasma, iv, RNB-61 1 mg kg^–1 i.v., no tariquidar, read-out: plasma Tmax",0.25 h
same,brain Cmax and AUClast higher with tariquidar than RNB-61 alone,[4]; tariquidar 5 mg kg^–1,~10 fold
same,IC50,"[5]; Table S1, read-out: COX-2 (Ki, IC50)",> 10000 nM
same,inhibition of EC oxygenation (COX-2),[5]; screening concentration 10 μM,did not inhibit
same,fraction unbound,[6]; human,0.019
same,fraction unbound,[6]; mouse,0.019
same,fraction unbound,[6]; rat,0.017
same,inhibition of EC hydrolysis by FAAH,[7],did not inhibit
